Measured values published in patent US20060210554A1, “Detection of cholesterol ozonation products” (priority 2003, published 2006).

Experiments:
[1] = Aldolization of ketoaldehyde 4a with amino acids (1H NMR); assay type: physicochemical; conditions: L-Lys(OEt).2HCl, 1 equivalent, 100 h, DMSO-d6/D2O
Procedure: Aldolization of ketoaldehyde 4a with amino acids. […] To this solution was added 1 equivalent of either: a) L-proline, b) glycine, c) L-lysine hydrochloride or d) L-lysine ethyl ester dihydrochloride. At time points the samples were analyzed by ^1H NMR.

[2] = biological target: apoB-100 of human LDL (Homo sapiens, UniProt P04114); experiment: Circular dichroism of LDL secondary structure; conditions: LDL 100 μg/ml, compound 10 μM, PBS pH 7.4, 37° C., up to 48 h; for random coil of LDL protein after incubation: normal LDL 27±2%; for a helical structure of LDL protein after incubation: normal LDL ~40±2%
Sequence of apoB-100 of human LDL (P04114 28-4563): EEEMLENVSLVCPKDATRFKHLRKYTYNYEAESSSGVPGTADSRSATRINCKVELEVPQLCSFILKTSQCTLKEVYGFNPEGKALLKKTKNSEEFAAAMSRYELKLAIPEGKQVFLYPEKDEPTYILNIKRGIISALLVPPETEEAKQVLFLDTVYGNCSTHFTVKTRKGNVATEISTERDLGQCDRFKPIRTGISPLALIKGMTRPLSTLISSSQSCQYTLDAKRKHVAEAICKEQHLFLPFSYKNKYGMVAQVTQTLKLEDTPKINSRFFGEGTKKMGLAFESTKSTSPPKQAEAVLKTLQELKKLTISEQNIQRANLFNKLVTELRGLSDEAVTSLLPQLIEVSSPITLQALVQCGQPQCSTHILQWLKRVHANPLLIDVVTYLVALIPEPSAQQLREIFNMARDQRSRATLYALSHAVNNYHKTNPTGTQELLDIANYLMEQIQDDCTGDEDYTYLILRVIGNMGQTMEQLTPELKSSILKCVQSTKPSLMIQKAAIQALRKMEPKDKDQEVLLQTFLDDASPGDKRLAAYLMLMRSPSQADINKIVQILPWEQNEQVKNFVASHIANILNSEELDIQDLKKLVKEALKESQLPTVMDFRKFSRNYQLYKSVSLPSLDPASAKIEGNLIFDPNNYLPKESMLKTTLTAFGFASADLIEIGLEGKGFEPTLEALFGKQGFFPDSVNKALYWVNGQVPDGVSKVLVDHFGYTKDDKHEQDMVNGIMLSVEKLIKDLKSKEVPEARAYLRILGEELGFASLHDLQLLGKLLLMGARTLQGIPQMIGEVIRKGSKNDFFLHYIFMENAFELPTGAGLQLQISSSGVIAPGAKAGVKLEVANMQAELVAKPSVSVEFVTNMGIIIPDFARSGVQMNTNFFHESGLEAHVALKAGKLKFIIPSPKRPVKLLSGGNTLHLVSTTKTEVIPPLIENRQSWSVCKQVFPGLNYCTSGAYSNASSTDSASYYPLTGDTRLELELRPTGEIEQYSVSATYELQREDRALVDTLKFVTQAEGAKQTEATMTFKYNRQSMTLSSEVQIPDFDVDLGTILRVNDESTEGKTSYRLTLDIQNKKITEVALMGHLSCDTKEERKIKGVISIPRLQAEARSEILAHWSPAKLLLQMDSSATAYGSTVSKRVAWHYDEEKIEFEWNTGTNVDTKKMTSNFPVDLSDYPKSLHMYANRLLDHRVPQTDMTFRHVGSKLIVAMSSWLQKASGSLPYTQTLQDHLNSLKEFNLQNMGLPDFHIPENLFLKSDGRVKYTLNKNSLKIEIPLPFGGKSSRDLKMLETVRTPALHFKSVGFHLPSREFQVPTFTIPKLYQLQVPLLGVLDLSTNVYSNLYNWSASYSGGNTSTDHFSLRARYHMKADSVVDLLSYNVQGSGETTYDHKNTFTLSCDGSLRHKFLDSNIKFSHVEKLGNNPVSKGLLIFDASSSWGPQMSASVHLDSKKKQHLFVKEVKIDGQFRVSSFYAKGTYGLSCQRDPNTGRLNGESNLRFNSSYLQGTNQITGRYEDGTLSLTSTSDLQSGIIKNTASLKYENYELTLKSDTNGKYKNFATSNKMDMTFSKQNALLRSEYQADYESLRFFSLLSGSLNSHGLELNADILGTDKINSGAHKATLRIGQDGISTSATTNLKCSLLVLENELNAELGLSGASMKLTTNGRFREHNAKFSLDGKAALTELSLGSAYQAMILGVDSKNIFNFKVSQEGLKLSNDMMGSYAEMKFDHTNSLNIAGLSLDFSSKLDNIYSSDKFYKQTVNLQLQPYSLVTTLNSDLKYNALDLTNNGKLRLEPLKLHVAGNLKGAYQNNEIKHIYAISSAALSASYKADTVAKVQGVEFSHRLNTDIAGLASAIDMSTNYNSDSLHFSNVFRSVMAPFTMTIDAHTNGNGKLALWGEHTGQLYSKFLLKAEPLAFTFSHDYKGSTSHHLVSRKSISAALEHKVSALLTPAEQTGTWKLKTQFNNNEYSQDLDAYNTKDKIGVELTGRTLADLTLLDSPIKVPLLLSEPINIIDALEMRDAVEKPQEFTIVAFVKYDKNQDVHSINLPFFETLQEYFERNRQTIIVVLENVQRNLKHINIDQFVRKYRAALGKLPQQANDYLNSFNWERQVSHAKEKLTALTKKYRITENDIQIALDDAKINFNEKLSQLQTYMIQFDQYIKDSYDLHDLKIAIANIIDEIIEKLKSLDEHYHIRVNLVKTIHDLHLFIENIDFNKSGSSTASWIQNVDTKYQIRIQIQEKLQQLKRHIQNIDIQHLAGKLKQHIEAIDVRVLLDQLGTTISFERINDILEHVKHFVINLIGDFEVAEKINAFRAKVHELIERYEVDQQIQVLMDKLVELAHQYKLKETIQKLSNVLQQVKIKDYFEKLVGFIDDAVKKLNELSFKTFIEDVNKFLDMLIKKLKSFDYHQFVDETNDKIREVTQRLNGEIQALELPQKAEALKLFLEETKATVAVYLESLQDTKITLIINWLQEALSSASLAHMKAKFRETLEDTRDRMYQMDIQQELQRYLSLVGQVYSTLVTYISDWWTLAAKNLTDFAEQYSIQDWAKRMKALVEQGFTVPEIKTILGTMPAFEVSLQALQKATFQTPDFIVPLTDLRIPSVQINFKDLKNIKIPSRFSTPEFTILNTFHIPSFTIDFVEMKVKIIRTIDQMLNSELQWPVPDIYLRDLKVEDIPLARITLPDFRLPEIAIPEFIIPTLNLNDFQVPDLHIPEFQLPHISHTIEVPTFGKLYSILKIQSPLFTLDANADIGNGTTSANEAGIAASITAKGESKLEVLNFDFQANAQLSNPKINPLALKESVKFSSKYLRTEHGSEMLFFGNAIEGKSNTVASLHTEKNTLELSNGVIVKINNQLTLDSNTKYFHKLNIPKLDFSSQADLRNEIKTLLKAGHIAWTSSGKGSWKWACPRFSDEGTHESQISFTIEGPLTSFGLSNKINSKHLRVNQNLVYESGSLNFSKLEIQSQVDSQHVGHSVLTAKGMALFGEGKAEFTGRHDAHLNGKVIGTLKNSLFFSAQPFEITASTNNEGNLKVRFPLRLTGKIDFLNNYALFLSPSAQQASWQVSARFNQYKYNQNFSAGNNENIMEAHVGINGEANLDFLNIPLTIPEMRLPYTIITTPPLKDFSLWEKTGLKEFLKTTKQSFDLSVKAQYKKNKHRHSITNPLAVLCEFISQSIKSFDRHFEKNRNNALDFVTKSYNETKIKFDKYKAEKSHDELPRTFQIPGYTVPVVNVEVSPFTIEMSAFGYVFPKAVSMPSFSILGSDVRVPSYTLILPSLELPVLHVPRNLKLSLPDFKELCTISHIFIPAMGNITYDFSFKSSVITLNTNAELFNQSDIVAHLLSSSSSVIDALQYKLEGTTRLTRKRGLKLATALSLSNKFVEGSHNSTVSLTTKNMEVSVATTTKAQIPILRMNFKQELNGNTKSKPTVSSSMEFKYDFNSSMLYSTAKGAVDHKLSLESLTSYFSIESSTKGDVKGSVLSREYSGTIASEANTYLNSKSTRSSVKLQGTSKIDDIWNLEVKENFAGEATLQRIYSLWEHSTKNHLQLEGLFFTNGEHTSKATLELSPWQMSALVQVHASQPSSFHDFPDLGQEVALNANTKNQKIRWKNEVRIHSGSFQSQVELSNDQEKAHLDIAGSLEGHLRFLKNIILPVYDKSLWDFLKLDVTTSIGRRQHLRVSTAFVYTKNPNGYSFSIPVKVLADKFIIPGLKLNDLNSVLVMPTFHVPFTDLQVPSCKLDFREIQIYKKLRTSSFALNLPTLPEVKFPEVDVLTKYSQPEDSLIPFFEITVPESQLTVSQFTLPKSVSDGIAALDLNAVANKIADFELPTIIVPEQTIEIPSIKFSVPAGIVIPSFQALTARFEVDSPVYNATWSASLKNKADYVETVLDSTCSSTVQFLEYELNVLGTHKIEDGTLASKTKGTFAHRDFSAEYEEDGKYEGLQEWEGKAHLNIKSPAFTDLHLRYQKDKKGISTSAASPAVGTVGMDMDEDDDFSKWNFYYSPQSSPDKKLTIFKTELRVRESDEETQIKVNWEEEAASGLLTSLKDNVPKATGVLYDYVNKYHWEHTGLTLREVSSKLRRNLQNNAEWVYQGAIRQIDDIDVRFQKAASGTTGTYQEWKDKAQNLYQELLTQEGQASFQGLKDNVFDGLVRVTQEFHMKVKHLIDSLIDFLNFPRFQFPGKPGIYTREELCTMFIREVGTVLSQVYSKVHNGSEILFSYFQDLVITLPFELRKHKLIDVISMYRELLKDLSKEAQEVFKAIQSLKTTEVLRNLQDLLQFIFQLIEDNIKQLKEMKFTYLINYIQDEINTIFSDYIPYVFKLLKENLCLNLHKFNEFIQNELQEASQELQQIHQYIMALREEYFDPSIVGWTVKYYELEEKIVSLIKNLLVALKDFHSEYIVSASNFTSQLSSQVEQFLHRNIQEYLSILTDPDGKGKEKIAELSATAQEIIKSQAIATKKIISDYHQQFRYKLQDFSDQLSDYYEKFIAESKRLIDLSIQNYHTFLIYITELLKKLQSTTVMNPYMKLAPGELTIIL
Procedure: Circular dichroism. […] Spectra were recorded in the peptidic range (200-260 nm). To increase the signal-to-noise ratio, multiple spectra (three) were averaged for each measurement.

SMILES | conversion of 4a into 5a [1] [% conversion] | random coil of LDL protein after incubation [2] [%] | a helical structure of LDL protein after incubation [2] [%]
CC(C)CCC[C@@H](C)[C@H]1CCC2C(CC=O)C([C@@]3(C)CC[C@H](O)CC3=O)CC[C@@]21C (some centres unmarked) [4a, 3βHydroxy-5-oxo-5,6-secocholestan-6-al] | 62 | ~39±2 | ~23±5
CC(C)CCC[C@@H](C)[C@H]1CCC2C3C(CC[C@@]21C)[C@@]1(C)CC[C@H](O)C[C@@]1(O)[C@@H]3C=O (stereo partly drawn) [5a, 3β-Hydroxy-5β-hydroxy-B-norcholestane-6β-carboxaldehyde] |  | 32±4 | ~20±2
